Measurements published in US20080230094A1, “METHOD TO INHIBIT GROWTH OF MICROORGANISMS IN AQUEOUS SYSTEMS AND ON SUBSTRATES USING PERSULFATE AND A BROMIDE” (Buckman Laboratories International, Inc., priority 2007, published 2008).

Test system: Pseudomonas aeruginosa
Experiment: Biocidal efficacy in pulp slurry inoculated with Pseudomonas aeruginosa (plate count, log reduction)
Format: cell-based
Settings: 1000 ppm as pure compound in pulp slurry; 24 hr incubation
Description: A concentrated solution of active biocidal composition was prepared by mixing 44% (w/v) of aqueous ammonium persulfate with 40% (w/v) aqueous sodium bromide in equal volume. The final mixture contains 22% ammonium persulfate and 20% NaBr at pH 2.2. […] Four hours after mixing, the concentrated solution was diluted with water to contain 5% ammonium persulfate. This diluted solution (5%) was then added to 50 ml pulp slurry to give a biocidal concentration of 10 ppm (as ammonium persulfate) in pulp slurry. The pulp slurry was then inoculated with 3×10^6 cells/ml of Pseudomonas aeruginosa, incubated at room temperature for 24 hr, plated in nutrient agar. The colony forming units per milliliter (cfu/ml) was counted and compared with each individual component acting alone.
The pulp slurry contains white bleached dry pulp at 5 g/L; cationic starch at 10 bl/ton dry pulp; CaCO3 at 300 bl/ton dry pulp; ASA size at 3-4 lb/ton dry pulp; retention aids at 0.5-1.0 bl/ton dry pulp; defoamer at 250 g/ton dry pulp. The pulp slurry has a consistency of about 0.5 to 0.7%. The final pH of the pulp substrate after autoclave is about 8.0.

## [Br-].[Na+] [NaBr, sodium bromide]
  CFU/ml: 4.2 × 10^6 CFU/ml
  Log Reduction: 0.00
